Assay results taken from US10206394B2, “Herbicidal compounds” (Syngenta Participations AG, priority 2014, dated 2019).
Like-named read-outs stand apart in the source and are kept apart here.

Tests used:
Experiment in all cases: Glasshouse assay for herbicidal activity (pre- and post-emergence), percentage phytotoxicity
Assay type in all cases: in vivo
[1] = system: Alopecurus myosuroides (ALOMY); details: Alopecurus myosuroides
Method in brief: (§1)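 Herbicide was applied to potted plants sown in standard soil, one day after sowing for PRE and after about 12 days for POST. Visual percentage damage ratings followed at 15 DAA (POST) and 20 DAA (PRE).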

[2] = system: Avena fatua (AVEFA); details: Avena fatua
Method in brief: as §1

[3] = system: Echinochloa crus-galli (ECHCG); details: Echinochloa crus-galli
Method in brief: as §1

[4] = system: Lolium perenne (LOLPE); details: Lolium perenne
Method in brief: as §1

[5] = post-emergence, 360 h, 250 g/ha, post-emergence, 15 DAA, visual assessment (100%=total damage, 0%=no damage), read-out: Post-emergence herbicidal activity (percentage phytotoxicity) ALOMY POST
[6] = pre-emergence, 480 h, 250 g/ha, pre-emergence, 20 DAA, visual assessment (100%=total damage, 0%=no damage), read-out: Pre-emergence herbicidal activity (percentage phytotoxicity) ALOMY PRE
[7] = post-emergence, 360 h, 250 g/ha, post-emergence, 15 DAA, visual assessment (100%=total damage, 0%=no damage), read-out: Post-emergence herbicidal activity (percentage phytotoxicity) AVEFA POST
[8] = pre-emergence, 480 h, 250 g/ha, pre-emergence, 20 DAA, visual assessment (100%=total damage, 0%=no damage), read-out: Pre-emergence herbicidal activity (percentage phytotoxicity) AVEFA PRE
[9] = post-emergence, 360 h, 250 g/ha, post-emergence, 15 DAA, visual assessment (100%=total damage, 0%=no damage), read-out: Post-emergence herbicidal activity (percentage phytotoxicity) ECHCG POST
[10] = pre-emergence, 480 h, 250 g/ha, pre-emergence, 20 DAA, visual assessment (100%=total damage, 0%=no damage), read-out: Pre-emergence herbicidal activity (percentage phytotoxicity) ECHCG PRE
[11] = post-emergence, 360 h, 250 g/ha, post-emergence, 15 DAA, visual assessment (100%=total damage, 0%=no damage), read-out: Post-emergence herbicidal activity (percentage phytotoxicity) LOLPE POST
[12] = pre-emergence, 480 h, 250 g/ha, pre-emergence, 20 DAA, visual assessment (100%=total damage, 0%=no damage), read-out: Pre-emergence herbicidal activity (percentage phytotoxicity) LOLPE PRE

Compound: Cc1cc(-c2ncc(Cl)cn2)cc(C)c1C1C(=O)CC(CC(=O)N(C)C(C)C)C1=O (stereo not drawn) [Compound B351]
- pest or weed control at 250 g/ha ([1]; post-emergence, 360 h, Rate 250 g/ha, post-emergence, visual assessment 15 DAA, 100%=total damage, 0%=no damage, read-out: Post-emergence herbicidal activity (percentage phytotoxicity) ALOMY POST): 100%
- pest or weed control at 250 g/ha ([1]; pre-emergence, 480 h, Rate 250 g/ha, pre-emergence, visual assessment 20 DAA, 100%=total damage, 0%=no damage, read-out: Pre-emergence herbicidal activity (percentage phytotoxicity) ALOMY PRE): 100%
- pest or weed control at 250 g/ha ([2]; post-emergence, 360 h, Rate 250 g/ha, post-emergence, visual assessment 15 DAA, 100%=total damage, 0%=no damage, read-out: Post-emergence herbicidal activity (percentage phytotoxicity) AVEFA POST): 100%
- pest or weed control at 250 g/ha ([2]; pre-emergence, 480 h, Rate 250 g/ha, pre-emergence, visual assessment 20 DAA, 100%=total damage, 0%=no damage, read-out: Pre-emergence herbicidal activity (percentage phytotoxicity) AVEFA PRE): 90%
- pest or weed control at 250 g/ha ([3]; post-emergence, 360 h, Rate 250 g/ha, post-emergence, visual assessment 15 DAA, 100%=total damage, 0%=no damage, read-out: Post-emergence herbicidal activity (percentage phytotoxicity) ECHCG POST): 100%
- pest or weed control at 250 g/ha ([3]; pre-emergence, 480 h, Rate 250 g/ha, pre-emergence, visual assessment 20 DAA, 100%=total damage, 0%=no damage, read-out: Pre-emergence herbicidal activity (percentage phytotoxicity) ECHCG PRE): 100%
- pest or weed control at 250 g/ha ([4]; post-emergence, 360 h, Rate 250 g/ha, post-emergence, visual assessment 15 DAA, 100%=total damage, 0%=no damage, read-out: Post-emergence herbicidal activity (percentage phytotoxicity) LOLPE POST): 100%
- pest or weed control at 250 g/ha ([4]; pre-emergence, 480 h, Rate 250 g/ha, pre-emergence, visual assessment 20 DAA, 100%=total damage, 0%=no damage, read-out: Pre-emergence herbicidal activity (percentage phytotoxicity) LOLPE PRE): 100%

Compound: C#CC(C)(C)NC(=O)CC1CC(=O)C(c2c(C)cc(-c3ccc(Br)cn3)cc2C)C1=O (stereo not drawn) [Compound B297]
- pest or weed control at 250 g/ha ([1]; post-emergence, 360 h, POST-emergence, rate 250 g/ha, visual score 15 DAA (100%=total damage, 0%=no damage), read-out: Post-emergence herbicidal activity (percentage phytotoxicity) ALOMY POST): 100%
- pest or weed control at 250 g/ha ([1]; pre-emergence, 480 h, PRE-emergence, rate 250 g/ha, visual score 20 DAA (100%=total damage, 0%=no damage), read-out: Pre-emergence herbicidal activity (percentage phytotoxicity) ALOMY PRE): 90%
- pest or weed control at 250 g/ha ([2]; post-emergence, 360 h, POST-emergence, rate 250 g/ha, visual score 15 DAA (100%=total damage, 0%=no damage), read-out: Post-emergence herbicidal activity (percentage phytotoxicity) AVEFA POST): 100%
- pest or weed control at 250 g/ha ([2]; pre-emergence, 480 h, PRE-emergence, rate 250 g/ha, visual score 20 DAA (100%=total damage, 0%=no damage), read-out: Pre-emergence herbicidal activity (percentage phytotoxicity) AVEFA PRE): 90%
- pest or weed control at 250 g/ha ([3]; post-emergence, 360 h, POST-emergence, rate 250 g/ha, visual score 15 DAA (100%=total damage, 0%=no damage), read-out: Post-emergence herbicidal activity (percentage phytotoxicity) ECHCG POST): 100%
- pest or weed control at 250 g/ha ([3]; pre-emergence, 480 h, PRE-emergence, rate 250 g/ha, visual score 20 DAA (100%=total damage, 0%=no damage), read-out: Pre-emergence herbicidal activity (percentage phytotoxicity) ECHCG PRE): 100%
- pest or weed control at 250 g/ha ([4]; post-emergence, 360 h, POST-emergence, rate 250 g/ha, visual score 15 DAA (100%=total damage, 0%=no damage), read-out: Post-emergence herbicidal activity (percentage phytotoxicity) LOLPE POST): 100%
- pest or weed control at 250 g/ha ([4]; pre-emergence, 480 h, PRE-emergence, rate 250 g/ha, visual score 20 DAA (100%=total damage, 0%=no damage), read-out: Pre-emergence herbicidal activity (percentage phytotoxicity) LOLPE PRE): 90%

Compound: Cc1cc(C)c(C2C(=O)CC(CC(=O)NCc3ccccc3C(F)(F)F)C2=O)c(C)c1 (stereo not drawn) [Compound B19]
- pest or weed control at 250 g/ha [1, 5]: 50%
- pest or weed control at 250 g/ha [1, 6]: 10%
- pest or weed control at 250 g/ha [2, 7]: 50%
- pest or weed control at 250 g/ha [2, 8]: 20%
- pest or weed control at 250 g/ha [3, 9]: 70%
- pest or weed control at 250 g/ha [3, 10]: 90%
- pest or weed control at 250 g/ha [4, 11]: 70%
- pest or weed control at 250 g/ha [4, 12]: 80%

Compound: CC#Cc1cc(C)c(C2C(=O)CC(CC(=O)NCC(C)(C)C)C2=O)c(C)c1 (stereo not drawn) [Compound A65]
- pest or weed control at 250 g/ha ([1]; post-emergence, 360 h, Rate 250 g/ha, post-emergence, assessed visually 15 DAA, 100%=total damage, 0%=no damage, read-out: Post-emergence herbicidal activity (percentage phytotoxicity) ALOMY POST): 90%
- pest or weed control at 250 g/ha ([1]; pre-emergence, 480 h, Rate 250 g/ha, pre-emergence, assessed visually 20 DAA, 100%=total damage, 0%=no damage, read-out: Pre-emergence herbicidal activity (percentage phytotoxicity) ALOMY PRE): 100%
- pest or weed control at 250 g/ha ([2]; post-emergence, 360 h, Rate 250 g/ha, post-emergence, assessed visually 15 DAA, 100%=total damage, 0%=no damage, read-out: Post-emergence herbicidal activity (percentage phytotoxicity) AVEFA POST): 90%
- pest or weed control at 250 g/ha ([2]; pre-emergence, 480 h, Rate 250 g/ha, pre-emergence, assessed visually 20 DAA, 100%=total damage, 0%=no damage, read-out: Pre-emergence herbicidal activity (percentage phytotoxicity) AVEFA PRE): 70%
- pest or weed control at 250 g/ha ([3]; post-emergence, 360 h, Rate 250 g/ha, post-emergence, assessed visually 15 DAA, 100%=total damage, 0%=no damage, read-out: Post-emergence herbicidal activity (percentage phytotoxicity) ECHCG POST): 100%
- pest or weed control at 250 g/ha ([3]; pre-emergence, 480 h, Rate 250 g/ha, pre-emergence, assessed visually 20 DAA, 100%=total damage, 0%=no damage, read-out: Pre-emergence herbicidal activity (percentage phytotoxicity) ECHCG PRE): 100%
- pest or weed control at 250 g/ha ([4]; post-emergence, 360 h, Rate 250 g/ha, post-emergence, assessed visually 15 DAA, 100%=total damage, 0%=no damage, read-out: Post-emergence herbicidal activity (percentage phytotoxicity) LOLPE POST): 80%
- pest or weed control at 250 g/ha ([4]; pre-emergence, 480 h, Rate 250 g/ha, pre-emergence, assessed visually 20 DAA, 100%=total damage, 0%=no damage, read-out: Pre-emergence herbicidal activity (percentage phytotoxicity) LOLPE PRE): 90%

Compound: CCCN(CC1CC1)C(=O)CC1CC(=O)C(c2c(C)cc(C)cc2C)C1=O (stereo not drawn) [Compound B79]
- pest or weed control at 250 g/ha [1, 5]: 60%
- pest or weed control at 250 g/ha [1, 6]: 60%
- pest or weed control at 250 g/ha [2, 7]: 10%
- pest or weed control at 250 g/ha [2, 8]: 0%
- pest or weed control at 250 g/ha [3, 9]: 60%
- pest or weed control at 250 g/ha [3, 10]: 80%
- pest or weed control at 250 g/ha [4, 11]: 80%
- pest or weed control at 250 g/ha [4, 12]: 80%

Compound: Cc1cc(-c2ncc(Cl)cc2F)cc(C)c1C1C(=O)CC(CC(=O)NCC2CC2C(F)F)C1=O (stereo not drawn) [Compound B143]
- pest or weed control at 250 g/ha [1, 5]: 100%
- pest or weed control at 250 g/ha [1, 6]: 90%
- pest or weed control at 250 g/ha [2, 7]: 100%
- pest or weed control at 250 g/ha [2, 8]: 90%
- pest or weed control at 250 g/ha [3, 9]: 100%
- pest or weed control at 250 g/ha [3, 10]: 100%
- pest or weed control at 250 g/ha [4, 11]: 100%
- pest or weed control at 250 g/ha [4, 12]: 100%
